In patent US20250129135A1, “Multi-Agonist and Use Thereof” (priority 2021, published 2025):

How the values were obtained:
C57 BL/6J DIO mice = test: In vivo pharmacodynamics in high-fat diet induced obesity (DIO) mice; design: species or system mouse; conditions: Mean±SEM; for Weight change: Table 6-1; for LDL-C / TC (total cholesterol) / TG (plasma triglycerides): Table 7-1, Day 15
In short: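 DIO mice (60 kcal% fat diet) dosed subcutaneously in 1×PBS, 5 ml/kg, every three days for 15 days. Daily body weight and food intake as % change from baseline; day 15 fasting glucose, plasma TC, LDL-C, TG, insulin and liver TG. Mean±SEM, one-way ANOVA with Dunnett's versus vehicle.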

[1] = Phase II clinical study, cited from earlier work
Human GLP-1R = Human GLP-1R (Homo sapiens, UniProt P43220); conditions: background statement; cited from earlier work
GCG receptor = GCG receptor (Homo sapiens, UniProt P47871); conditions: background statement; cited from earlier work
[2] = 26 weeks, cited from earlier work

Chain of Human GLP-1R (P43220 24-463, species assumed): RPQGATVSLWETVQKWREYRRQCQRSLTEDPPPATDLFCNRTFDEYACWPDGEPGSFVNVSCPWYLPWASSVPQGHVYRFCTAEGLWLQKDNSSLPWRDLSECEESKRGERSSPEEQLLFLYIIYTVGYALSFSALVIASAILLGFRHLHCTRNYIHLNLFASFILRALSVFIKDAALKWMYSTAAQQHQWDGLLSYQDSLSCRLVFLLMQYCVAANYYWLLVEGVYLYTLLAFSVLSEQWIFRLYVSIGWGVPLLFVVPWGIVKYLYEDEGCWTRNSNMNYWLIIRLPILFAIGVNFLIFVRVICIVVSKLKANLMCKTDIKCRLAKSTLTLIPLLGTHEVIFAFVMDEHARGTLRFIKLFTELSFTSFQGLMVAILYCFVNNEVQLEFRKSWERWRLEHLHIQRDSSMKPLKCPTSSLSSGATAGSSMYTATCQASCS
Chain of GCG receptor (P47871 26-477): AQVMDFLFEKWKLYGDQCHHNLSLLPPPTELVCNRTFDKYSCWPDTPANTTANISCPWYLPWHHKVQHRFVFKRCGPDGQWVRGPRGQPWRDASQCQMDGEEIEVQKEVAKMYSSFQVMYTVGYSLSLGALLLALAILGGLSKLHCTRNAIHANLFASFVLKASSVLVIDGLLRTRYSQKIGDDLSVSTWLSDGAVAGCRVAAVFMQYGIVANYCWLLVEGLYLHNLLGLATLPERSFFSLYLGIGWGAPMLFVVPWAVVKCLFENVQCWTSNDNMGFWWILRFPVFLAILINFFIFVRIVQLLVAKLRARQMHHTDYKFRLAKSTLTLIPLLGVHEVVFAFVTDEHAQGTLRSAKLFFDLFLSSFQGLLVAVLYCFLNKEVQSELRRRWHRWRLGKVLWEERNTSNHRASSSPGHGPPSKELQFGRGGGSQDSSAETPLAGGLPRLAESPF

CC[C@H](C)[C@H](NC(=O)[C@H](CC(C)C)NC(=O)[C@H](Cc1c[nH]c2ccccc12)NC(=O)[C@H](CCC(N)=O)NC(=O)[C@@H](NC(=O)[C@H](Cc1ccccc1)NC(=O)[C@H](C)NC(=O)[C@H](CCCCNC(=O)COCCOCCNC(=O)COCCOCCNC(=O)CC[C@H](NC(=O)CCCCCCCCCCCCCCCCCCC(=O)O)C(=O)O)NC(=O)[C@H](CCC(N)=O)NC(=O)[C@H](C)NC(=O)[C@@H](NC(=O)[C@H](CCCCN)NC(=O)[C@H](CC(=O)O)NC(=O)[C@H](CC(C)C)NC(=O)C(C)(C)NC(=O)[C@@H](NC(=O)[C@H](CO)NC(=O)[C@H](Cc1ccc(O)cc1)NC(=O)[C@H](CC(=O)O)NC(=O)[C@H](CO)NC(=O)[C@@H](NC(=O)[C@H](Cc1ccccc1)NC(=O)[C@@H](NC(=O)CNC(=O)[C@H](CCC(=O)O)NC(=O)C(C)(C)NC(=O)[C@@H](N)Cc1ccc(O)cc1)[C@@H](C)O)[C@@H](C)O)[C@@H](C)CC)[C@@H](C)CC)C(C)C)C(=O)N[C@@H](C)C(=O)NCC(=O)NCC(=O)N1CCC[C@H]1C(=O)N[C@@H](CO)C(=O)N[C@@H](CO)C(=O)NCC(=O)N[C@@H](C)C(=O)N1CCC[C@H]1C(=O)N1CCC[C@H]1C(=O)N1CCC[C@H]1C(=O)N[C@@H](CO)C(N)=O [Tirzepatide, reference compound]
Weight change (C57 BL/6J DIO mice; 3 nmol/kg s.c. Q3D for 15 days): −16.1 ± 0.71%
Weight change (C57 BL/6J DIO mice; 10 nmol/kg s.c. Q3D for 15 days): −21.6 ± 0.99%
Weight change (C57 BL/6J DIO mice; 30 nmol/kg s.c. Q3D for 15 days): −32.6 ± 1.60%
LDL-C (C57 BL/6J DIO mice; 3 nmol/kg): 0.62 ± 0.065 mM
TC (total cholesterol) (C57 BL/6J DIO mice; 3 nmol/kg): 4.12 ± 0.322 mM
TG (plasma triglycerides) (C57 BL/6J DIO mice; 3 nmol/kg): 0.97 ± 0.050 mM
LDL-C (C57 BL/6J DIO mice; 30 nmol/kg): 0.57 ± 0.057 mM
TC (total cholesterol) (C57 BL/6J DIO mice; 30 nmol/kg): 3.28 ± 0.259 mM
TG (plasma triglycerides) (C57 BL/6J DIO mice; 30 nmol/kg): 0.79 ± 0.068 mM
hypoglycemic effect ([1]; 1 mg dose vs Dulaglutide 1.5 mg): significantly lower than that of Dulaglutide 1.5 mg
weight loss effect ([1]; 1 mg dose): almost no weight loss effect

CCCCCCCCCCCCCCCC(=O)N[C@@H](CCC(=O)NCCCC[C@H](NC(=O)[C@H](CC(=O)O)NC(=O)[C@H](CO)NC(=O)[C@@H](NC(=O)[C@H](Cc1ccccc1)NC(=O)[C@@H](NC(=O)CNC(=O)[C@H](CCC(N)=O)NC(=O)[C@H](CO)NC(=O)[C@@H](N)Cc1c[nH]cn1)[C@@H](C)O)[C@@H](C)O)C(=O)N[C@@H](CO)C(=O)N[C@@H](CCC(=O)O)C(=O)N[C@@H](Cc1ccc(O)cc1)C(=O)N[C@@H](CC(C)C)C(=O)N[C@@H](CC(=O)O)C(=O)N[C@@H](CO)C(=O)N[C@@H](CCC(=O)O)C(=O)N[C@@H](CCCNC(=N)N)C(=O)N[C@@H](C)C(=O)N[C@@H](CCCNC(=N)N)C(=O)N[C@@H](CC(=O)O)C(=O)N[C@@H](Cc1ccccc1)C(=O)N[C@H](C(=O)N[C@@H](C)C(=O)N[C@@H](Cc1c[nH]c2ccccc12)C(=O)N[C@@H](CC(C)C)C(=O)N[C@@H](CCC(=O)O)C(=O)N[C@@H](C)C(=O)NCC(=O)NCC(=O)O)C(C)C)C(=O)O [Cotadutide]
GLP-1 receptor activity EC50 relative to wild-type GLP-1 (Human GLP-1R): 29%
GCG receptor relative activity EC50 (GCG receptor): 12.8%
body weight, blood lipids, and levels of ALT and AST ([2]; 100-300 μg compared to liraglutide): dose-dependent reduction
reduction of HbA1c ([2]; each dose group compared to liraglutide): no significant advantage
